In PubChem BioAssay (NCI):
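At the GI50, growth is halved. TGI: concentration producing complete growth inhibition.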

Tests used:
Assay in all cases: NCI-60 cell line screen, 384-well format
SW-620 colon = tested on: SW-620 colon
OVCAR-4 ovarian = tested on: OVCAR-4 ovarian
EKVX NSCLC = tested on: EKVX NSCLC
HS 578T breast = tested on: HS 578T breast
SK-OV-3 ovarian = tested on: SK-OV-3 ovarian
IGROV1 ovarian = tested on: IGROV1 ovarian
OVCAR-8 ovarian = tested on: OVCAR-8 ovarian
DU-145 prostate = tested on: DU-145 prostate
HOP-62 NSCLC = tested on: HOP-62 NSCLC
M14 melanoma = tested on: M14 melanoma
MOLT-4 leukemia = tested on: MOLT-4 leukemia
U251 glioblastoma = tested on: U251 glioblastoma
UACC-62 melanoma = tested on: UACC-62 melanoma

Row | Compound | GI50 (SW-620 colon) [µM] | TGI (SW-620 colon) [µM] | GI50 (OVCAR-4 ovarian) [µM] | TGI (OVCAR-4 ovarian) [µM] | GI50 (EKVX NSCLC) [µM] | TGI (EKVX NSCLC) [µM] | GI50 (HS 578T breast) [µM] | TGI (HS 578T breast) [µM] | GI50 (SK-OV-3 ovarian) [µM] | TGI (SK-OV-3 ovarian) [µM] | GI50 (IGROV1 ovarian) [µM] | TGI (IGROV1 ovarian) [µM] | GI50 (OVCAR-8 ovarian) [µM] | TGI (OVCAR-8 ovarian) [µM] | GI50 (DU-145 prostate) [µM] | TGI (DU-145 prostate) [µM] | GI50 (HOP-62 NSCLC) [µM] | TGI (HOP-62 NSCLC) [µM] | GI50 (M14 melanoma) [µM] | TGI (M14 melanoma) [µM] | other results
1 | C[C@@H](Nc1nc(N[C@H](C)C(F)(F)F)nc(-c2cccc(Cl)n2)n1)C(F)(F)F | > 49.5 | > 70.6 | 21.7 | 55 | > 100 | > 100 | 21.1 | 63.2 | > 100 | > 100 | > 100 | > 100 | 47.2 | > 100 | 34.1 | > 100 | 28.5 | > 65.4 | > 100 | > 100 | GI50 (MOLT-4 leukemia): > 100 µM; TGI (MOLT-4 leukemia): > 100 µM; GI50 (U251 glioblastoma): 40 µM; TGI (U251 glioblastoma): > 100 µM; GI50 (UACC-62 melanoma): 38.6 µM; TGI (UACC-62 melanoma): > 76.9 µM
2 | Cc1cc(F)c(C(=O)Nc2cccc(-c3nncn3C(C)C)n2)cc1-n1cnc(C2CC2)c1 | 13.9 | 32.3 | 17.2 | 38.5 | 5.8 | 22.1 | 8.3 | 35.2 | 17.4 | 38.6 | 9.78 | 40.5 | 12 | 25.6 | 6.87 | 27.8 | 8.04 | 29.3 | 14.5 | 28.7 | GI50 (MOLT-4 leukemia): 5.69 µM; TGI (MOLT-4 leukemia): 18.1 µM; GI50 (U251 glioblastoma): 11.9 µM; TGI (U251 glioblastoma): > 81.6 µM; GI50 (UACC-62 melanoma): 12.9 µM; TGI (UACC-62 melanoma): 25.9 µM
